Experimental data: patent US20220211603A1, “Oral Compositions And Methods Of Use” (3M INNOVATIVE PROPERTIES COMPANY, priority 2019, published 2022)

Tested on: Streptococcus mutans (ATCC 25175) biofilm
Assay: MBEC Biofilm Disruption Assay
Type: cell-based
Settings: glucosamine HCl combined with MEGA-9 in water
From the text: In some embodiments, disclosed compositions can prevent, inhibit, disrupt the formation or maintenance of a biofilm in an area contacted with the composition. The area contacted can be in vivo or in vitro. In some embodiments, a composition can prevent, inhibit, disrupt the formation or maintenance of a biofilm in a mouth of a user where the composition was applied to the mouth, for example via spraying the composition into the mouth when compared to a mouth without the composition applied thereto. […] Preventing, inhibiting, disrupting, or some combination thereof the formation or maintenance of biofilms can be measured using a modified version of the MBEC assay (described in ASTM […]-12), which measures disruption of Streptococcus mutans biofilms grown on special pegs in a microtiter plate. […] The biofilm remaining on each peg following treatment is quantified by measuring the amount of fluorescently labeled bacteria that eluted from the pegs at the end of the treatment cycles (see example). […] Decreasing plaque buildup can be measured by a variety of methods in vivo including for example plaque scoring, dyeing of plaque, etc. […] Control wells for fluorescence readings were also filled with 150 microliter of phosphate-buffered saline (PBS) or non-bacteria-containing media consisting of BHI with 1% sucrose and 1 micromolar ALEXA FLUOR 488 dextran. […]

Cl.N[C@H]1C(O)O[C@H](CO)[C@@H](O)[C@@H]1O (stereo partly shown) [Glucosamine HCl]
effect on biofilm disruption of MEGA-9 (in words): enhanced the biofilm disruption effect of MEGA-9
